Measured values: patent publication US12168781B2, “Production method for T cells or NK cells, medium for culturing T cells or NK cells, method for culturing T cells or NK cells, method for maintaining undifferentiated state of undifferentiated T cells, and growth-accelerating agent for T cells or NK cells” (KIRIN HOLDINGS KABUSHIKI KAISHA, priority 2018, dated 2024)

How the values were obtained:
Assay type in all cases: cell-based, human
[1] = test system: T-iPS-T cells; experiment: Comparison with PBMC feeder: proliferation of T-iPS-T cells; conditions: 1 μM added to CD3/CD28 Dynabeads vs PBMC feeder, FIG. 10
Protocol: By using T-iPS-T cells, a proliferation promoting effect was compared by culturing the cells using the following three methods: the same stimulation method as in Example 2 using PBMC feeder, the same stimulation method as in Example 4 using CD3/CD28 Dynabeads, and the same stimulation method as in Example 4 in which berbamine (SIGMA, 547190) at 1 μM was added to CD3/CD28 Dynabeads. The PBMC feeder cells were labeled using CellTrace CFSE Cell Proliferation Kit for Flow Cytometry (CFSE, Invitrogen, 100 nM) in order to discriminate them from T-iPS-T cells, and then, a radiation irradiation treatment was performed.
From the above results, it can be said that the present invention can substitute PBMCs which have been conventionally used for the proliferation of T cells.

[2] = test system: naive T cells; experiment: Proliferation of sorted naive T cells, trypan blue count; conditions: 1 μM, naive T cells, 6, 9, 12 and 14 days, FIG. 18C
From the text: NPL 4 reports that hierarchy exists in T cells (FIG. 18A). In this Example, a fraction in which berbamine acts in T cells was verified. As a method therefor, PBMCs (CTL, Inc.) derived from a healthy subject was washed with a staining solution (PBS containing 2% FBS), and then stained with CCR7-APC (BioLegend, 353214), CD45RA-BV510 (BioLegend, 304142), CD45RO-APC-Cy7 (BioLegend, 307228), CD95-PC-Cy7 (BioLegend, 305622), CD8β-PE (Beckman, IM2217U), and CD4-BV421 (BioLegend, 317434).
After washing, the cells were resuspended in the staining solution containing PI, and by using BD AriaII Cell Sorter (BD Bioscience), in the CD8β(+) cells, CCR7(+)CD45RA(+)CD95(−)CD45RO(−) was sorted as naive T cells, CCR7(+)CD45RA(+)CD95(+)CD45RO(+) was sorted as stem cell memory T cells, CCR7(+)CD45RA(−)CD45RO(+) was sorted as central memory T cells, and CCR7(−) CD45RA(−)CD45RO(+) was sorted as effector memory T cells.
The respective cells (about 3,000 cells/well) were seeded, and berbamine (BBM) at 1 μM or MilliQ water that is a solvent for the compound as a control was added thereto, and the cells were stimulated with CD3/CD28 Dynabeads (about 9,000 beads/well). The cells were cultured using the same culture medium as in Example 6.
After 6, 9, 12, and 14 days of culturing, the number of viable cells was counted by a trypan blue method. In a statistical analysis, a Student's t-test was used (*: p<0.05).

[3] = test system: T-iPS-T cells; experiment: Number of viable T-iPS-T cells under feeder-free culture (CD3/CD28 Dynabeads, Cell Count Reagent SF, absorbance 450 nm/650 nm); conditions: for number of viable cells (OD value): T-iPS-T cells after 1st expansion, DMSO control 0.225 ± 0.017
Protocol: T-iPS-T cells (1,500 cells/well) after 1st expansion were seeded and cultured in RPMI-1640 medium (SIGMA, R8758) supplemented with 15% FBS (CORNING, 35-076-CV, 35076104R), 1% PSG (SIGMA, G1146), PAA (50 μg/mL, Nacalai Tesque, 03420-52), ITS-G, IL-7 (5 ng/mL), IL-12 (50 ng/mL), IL-15 (5 ng/mL), IL-18 (50 ng/mL), IL-21 (20 ng/mL), and z-VAD-fmk (10 μM). The cells were stimulated by adding CD3/CD28 Dynabeads (Gibco, 11131D, the “Dynabeads” is a registered trademark) (4,500 beads/well) thereto, and 1,080 compounds [MedChemExpress, Apoptosis Compound Library (HY-L003), Cell Cycle/DNA Damage Compound Library (HY-L004), JAK/STAT Compound Library (HY-L008), MAPK Compound Library (HY-L010), NF-kappaB Compound Library (HY-L014), PI3K/Akt/mTOR Compound Library (HY-L015), and Wnt/Hedgehog/Notch Compound Library (HY-L020)] were added thereto (one type per well) at a final concentration of 1 μM, and then, the cells were cultured at 37° C. under 5% CO2.
DMSO (0.1%) that is a solvent for the compound was used as a control. After 6 days, the number of viable cells was measured using Cell Count Reagent SF (Nacalai Tesque, 07553) and a microplate reader (SoftMax Pro 5.X, Molecular Devices, 450 nm/650 nm).
A calibration curve for cell number was set as follows. When measuring the number of viable cells, 12-point serial dilution was performed for the same cells as those used in the screening, and the cells were seeded (0 to 1,536,000 cells/well) in RPMI-1640 medium supplemented with 15% FBS, 1% PSG, PAA, ITS-G, IL-7 (5 ng/mL) and IL-15 (5 ng/mL). The number of viable cells was measured together with the screening samples, and a calibration curve for WST-8 assay was formed.
In order to further evaluate the results obtained in Example 4, reproducibility was evaluated. As a method therefor, the same method as in Example 4 was used to carry out culturing and evaluation. As compounds, 20 compounds were selected and used among the compounds used in Example 4 including berbamine, and DMSO (0.1%) that is a solvent for the compound was used as a control. Note that in a statistical analysis, a Student's t-test was used (*: p<0.05).
The effect of a berbamine derivative on the proliferation of T cells was verified. As a method therefor, T-iPS-T cells after 1st expansion were cultured in the same manner as in Example 4, and berbamine (BBM) or each of 13 types of derivatives [BBMD1 to 13, Hebei Sundia MediTech Company Ltd.] was added thereto (one type per well) at a final concentration of 0.1 nM, 1 nM, 10 nM, 100 nM, or 1 μM, and then, the cells were cultured at 37° C. under 5% CO2. DMSO (0.1%) that is a solvent for the compound was used as a control.
After culturing for 6 days, the number of viable cells was measured using Cell Count Reagent SF (Nacalai Tesque, 07553) and a microplate reader (SoftMax Pro 5. X, Molecular Devices, 450 nm/650 nm), and the OD value was used as data. Note that in a statistical analysis, a Student's t-test was used (*: p<0.05). 1.

Structure (SMILES): COc1cc2c3cc1Oc1c(OC)c(OC)cc4c1[C@@H](Cc1ccc(O)c(c1)Oc1ccc(cc1)C[C@@H]3N(C)CC2)N(C)CC4 [berbamine]
- number of undifferentiated cells compared with the presence of feeder cells [1]: comparable results
- number of viable cells compared with the presence of feeder cells [1]: significant increase in the number of viable cells
- number of viable cells compared with MilliQ water [2]: significant enhancement of cell proliferation
- number of viable cells (OD value) ([3]; 0.1 nM, 6 days): 0.257 ± 0.018
- number of viable cells (OD value) ([3]; 1 nM, 6 days): 0.266 ± 0.024
- number of viable cells (OD value) ([3]; 10 nM, 6 days): 0.275 ± 0.019 *
- number of viable cells (OD value) ([3]; 100 nM, 6 days): 0.282 ± 0.031 *
- number of cells compared with DMSO (reproducibility of the screening) ([3]; 1 μM, 20 compounds, Student's t-test, FIG. 11): significant increase in the number of cells
- number of viable cells, rank among the 1,080 compounds screened ([3]; 1 μM, 6 days, FIG. 6): highest number of viable cells
- number of viable cells (OD value) ([3]; 1 μM, 6 days): 0.505 ± 0.034 ***
